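1) Cells in 96-well plates. 2) Compound, 48 h, 5 concentrations. 3) Linear interpolation between surrounding doses. 4) Unreached endpoint = highest concentration. Abbreviation: GI50, concentration required for 50% inhibition of growth. TGI is the concentration that stops growth completely.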
Key:
Test in all cases: growth of human tumour cells (NCI), 48 h
[1] = test system: 786-0 renal
[2] = test system: TK-10 renal
[3] = test system: NCI/ADR-RES ovarian
[4] = test system: MALME-3M melanoma
[5] = test system: IGROV1 ovarian
[6] = test system: K-562 leukemia
[7] = test system: SNB-75 CNS
[8] = test system: COLO 205 colon
[9] = test system: HCC-2998 colon
[10] = test system: HOP-62 NSCLC
[11] = test system: NCI-H226 lung
[12] = test system: NCI-H23 lung
[13] = test system: SR leukemia
[14] = test system: HT29 colon
[15] = test system: MDA-N
[16] = test system: HS 578T breast
[17] = test system: SK-OV-3 ovarian
[18] = test system: SK-MEL-5 melanoma
[19] = test system: SF-539 CNS
[20] = test system: NCI-H460 lung
[21] = test system: EKVX NSCLC
[22] = test system: LOX IMVI melanoma
[23] = test system: DU-145 prostate
[24] = test system: SNB-19 CNS
[25] = test system: HCT-15 colon
[26] = test system: KM12 colon
[27] = test system: SN12C renal
[28] = test system: CCRF-CEM leukemia
[29] = test system: UACC-62 melanoma
[30] = test system: CAKI-1 renal
[31] = test system: HOP-92 NSCLC
[32] = test system: RPMI-8226 leukemia
[33] = test system: SF-295 CNS
[34] = test system: PC-3 prostate
[35] = test system: SK-MEL-28 melanoma
[36] = test system: M14 melanoma
[37] = test system: MCF7 breast
[38] = test system: MDA-MB-435
[39] = test system: HCT-116 colon
[40] = test system: HL-60(TB) leukemia
[41] = test system: MDA-MB-231 breast
[42] = test system: ACHN renal
[43] = test system: BT-549 breast
[44] = test system: UO-31 renal
[45] = test system: SW-620 colon
[46] = test system: SF-268 CNS
[47] = test system: RXF 393 renal
[48] = test system: A549 NSCLC
[49] = test system: T-47D breast
[50] = test system: NCI-H522 lung
[51] = test system: UACC-257 melanoma
[52] = test system: OVCAR-8 ovarian
[53] = test system: OVCAR-4 ovarian
[54] = test system: OVCAR-3 ovarian
[55] = test system: OVCAR-5 ovarian
[56] = test system: SK-MEL-2 melanoma
[57] = test system: U251 CNS
[58] = test system: MOLT-4 leukemia

N#Cc1nc(/C=C/c2nc(C#N)c(N)o2)oc1N
TGI [1]: > 10 µM | TGI [2]: > 10 µM | TGI [3]: > 10 µM | TGI [4]: > 10 µM | TGI [5]: > 10 µM | TGI [6]: > 10 µM | TGI [7]: > 10 µM | TGI [8]: > 10 µM | TGI [9]: > 10 µM | TGI [10]: > 10 µM | TGI [11]: > 10 µM | TGI [12]: > 10 µM | TGI [13]: > 10 µM | TGI [14]: > 10 µM | TGI [15]: > 10 µM | TGI [16]: > 10 µM | TGI [17]: > 10 µM | TGI [18]: > 10 µM | TGI [19]: > 10 µM | TGI [20]: > 10 µM | TGI [21]: > 10 µM | TGI [22]: > 10 µM | TGI [23]: > 10 µM | TGI [24]: > 10 µM | TGI [25]: > 10 µM | TGI [26]: > 10 µM | TGI [27]: > 10 µM | TGI [28]: > 10 µM | TGI [29]: > 10 µM | TGI [30]: > 10 µM | TGI [31]: > 10 µM | TGI [32]: > 10 µM | TGI [33]: > 10 µM | TGI [34]: > 10 µM | TGI [35]: > 10 µM | TGI [36]: > 10 µM | TGI [37]: > 10 µM | TGI [38]: > 10 µM | TGI [39]: > 10 µM | TGI [40]: > 10 µM | TGI [41]: > 10 µM | TGI [42]: > 10 µM | TGI [43]: > 10 µM | TGI [44]: > 10 µM | TGI [45]: > 10 µM | TGI [46]: > 10 µM | TGI [47]: > 10 µM | TGI [48]: > 10 µM | TGI [49]: > 10 µM | TGI [50]: > 10 µM | TGI [51]: > 10 µM | TGI [52]: > 10 µM | TGI [53]: > 10 µM

O=[N+]([O-])c1ccc2c3c1[C@H]1O[C@H]1c1cccc(c1-3)[C@@H]1O[C@H]21
TGI [1]: 3.56 µM | TGI [2]: > 30 µM | TGI [3]: 5.65 µM | TGI [4]: 4.64 µM | TGI [6]: > 100 µM | TGI [7]: 4.1 µM | GI50 [8]: 1720 nM | TGI [8]: 3.69 µM | TGI [10]: 10.8 µM | TGI [11]: > 100 µM | TGI [12]: 3.88 µM | TGI [13]: > 100 µM | TGI [14]: 6.57 µM | TGI [15]: 4.91 µM | TGI [16]: 7.06 µM | TGI [17]: 11.6 µM | TGI [18]: 7.82 µM | TGI [19]: 4.09 µM | TGI [54]: 6.2 µM | TGI [21]: 4.08 µM | TGI [22]: 1.28 µM | TGI [23]: 6.25 µM | TGI [24]: 13.6 µM | TGI [25]: 4.47 µM | TGI [26]: 5.86 µM | TGI [27]: 4.69 µM | TGI [29]: 3.69 µM | TGI [30]: 3.73 µM | TGI [31]: 5.03 µM | TGI [32]: > 100 µM | TGI [33]: 12.3 µM | TGI [34]: > 20 µM | TGI [35]: 6.73 µM | TGI [36]: 3.75 µM | GI50 [37]: 2780 nM | TGI [37]: > 100 µM | TGI [38]: 4.14 µM | TGI [39]: 3.59 µM | TGI [40]: 8.85 µM | TGI [41]: 3.87 µM | TGI [55]: 6.77 µM | TGI [42]: 5.17 µM | TGI [43]: 3.89 µM | TGI [44]: 3.62 µM | TGI [45]: 2.75 µM | TGI [46]: 4.38 µM | TGI [56]: > 100 µM | TGI [47]: 3.38 µM | TGI [48]: 15.5 µM | TGI [57]: 3.98 µM | TGI [49]: 6.18 µM | TGI [58]: > 100 µM | TGI [50]: 3.42 µM | TGI [51]: 4.87 µM | TGI [52]: 3.24 µM | TGI [53]: 4.46 µM

CC(=O)OCC1OC(n2c(-c3ccc(Cl)cc3)cc(-c3ccccc3)c(C#N)c2=S)C(OC(C)=O)C(OC(C)=O)C1OC(C)=O (stereo not drawn)
TGI [1]: 24.6 µM | TGI [2]: 42.2 µM | TGI [3]: 21 µM | TGI [4]: 7.71 µM | TGI [5]: 25.8 µM | TGI [6]: > 100 µM | TGI [7]: 20.8 µM | TGI [8]: 33 µM | TGI [9]: 34.7 µM | TGI [10]: 20.5 µM | TGI [11]: 12 µM | TGI [12]: 27.2 µM | TGI [13]: 53 µM | TGI [14]: 21.1 µM | TGI [15]: 24.3 µM | TGI [16]: 10.5 µM | TGI [17]: 25.2 µM | TGI [18]: 23.5 µM | TGI [19]: 14.6 µM | TGI [54]: 22.4 µM | TGI [20]: 17.9 µM | TGI [21]: 31.9 µM | TGI [22]: 17.8 µM | TGI [23]: 35.6 µM | TGI [24]: 20.9 µM | TGI [25]: > 100 µM | TGI [26]: 48.7 µM | TGI [27]: 26.3 µM | TGI [30]: 26.9 µM | TGI [31]: 40.8 µM | TGI [32]: 43.3 µM | TGI [33]: 23.6 µM | TGI [34]: 23.3 µM | TGI [35]: 23.4 µM | TGI [36]: 16.4 µM | TGI [37]: 67.8 µM | TGI [38]: 25.2 µM | TGI [39]: 18.8 µM | TGI [40]: 17.4 µM | TGI [41]: 15.7 µM | TGI [55]: 35 µM | TGI [42]: 26.2 µM | TGI [43]: 17.8 µM | TGI [44]: 40.1 µM | TGI [45]: 14.7 µM | TGI [46]: 25.6 µM | TGI [47]: 26 µM | TGI [48]: 27.9 µM | TGI [57]: 20.6 µM | TGI [49]: 39.5 µM | TGI [58]: 85.9 µM | TGI [50]: 60.1 µM | TGI [52]: 23 µM | TGI [53]: 3.3 µM

Reference: PubChem BioAssay (NCI)
